Reference: US9296741B2, “Bromodomain inhibitors” (priority 2012, dated 2016)
Where two headings read alike, the source gives them in different places.

Key:
[1] = test system: breast cancer cell line MX-1; experiment: MX-1 cell line proliferation assay; format: cell-based, human; settings: MX-1 cells, 3-day proliferation, Cell Titer Glo, read-out: Cellular proliferation: EC50
[2] = target: human BRD4 first bromodomain (BDI_K57-E168) (Homo sapiens (Human), UniProt O60885); experiment: TR-FRET bromodomain binding assay, BRD4 first bromodomain
[3] = test system: LPS induced IL-6 production; experiment: LPS (lipopolysaccharide) induced IL-6 production mouse assay; format: in vivo; settings: 3 mg/kg oral, 1 h before LPS, serum IL-6 2 h after LPS; for inhibition in vivo at 3 mg/kg: Mus musculus, read-out: Inhibition of LPS induced IL-6 production in Mice, % inhibition at 3 mg/kg
[4] = Mouse liver microsome stability assay; format: in vitro ADME; settings: microsomes, pH 7.4; for half-life at 0.5 μM: male, CD1, mouse
[5] = Rat liver microsome stability assay; format: in vitro ADME; settings: for half-life at 0.5 μM: rat liver microsomes (male Sprague-Dawley), 0.5 μM test compound, 0.25 mg/mL microsomal protein, pH 7.4, 37° C., read-out: Stability in rat liver microsomes (t1/2 in minutes)
[6] = Human liver microsome stability assay; format: in vitro ADME; settings: human, microsomes, pH 7.4; for half-life at 0.5 μM: both sexes
[7] = target: human BRD4 second bromodomain (BDII_E352-M457) (Homo sapiens (Human), UniProt O60885); experiment: TR-FRET bromodomain binding assay, BRD4 second bromodomain

Cn1cc(-c2cc(S(C)(=O)=O)ccc2Oc2ccc(Cl)cc2)c2cc[nH]c2c1=O [Example 154, 4-[2-(4-chlorophenoxy)-5-(methylsulfonyl)phenyl]-6-methyl-1,6-dihydro-7H-pyrrolo[2,3-c]pyridin-7-one]
EC50 ([1]; Homo sapiens, MX1, 72 h): 65.5 nM
Ki [2]: 20.8 nM
inhibition in vivo at 3 mg/kg [3]: 73%
half-life at 0.5 μM [4]: 18 min
half-life at 0.5 μM [5]: 66 min
half-life at 0.5 μM [6]: 42 min
Ki [7]: 13.1 nM

Cn1cc(-c2cc(S(N)(=O)=O)ccc2NCC2CC2)c2cc[nH]c2c1=O [Example 238, 4-[(cyclopropylmethyl)amino]-3-(6-methyl-7-oxo-6,7-dihydro-1H-pyrrolo[2,3-c]pyridin-4-yl)benzenesulfonamide]
EC50 ([1]; Homo sapiens, MX1, 72 h): 3.3 nM
Ki [2]: 1.1 nM
inhibition in vivo at 3 mg/kg [3]: 69%
half-life at 0.5 μM [4]: 63 min
half-life at 0.5 μM [5]: > 120 min
half-life at 0.5 μM [6]: 103 min
Ki [7]: 0.78 nM

CCS(=O)(=O)c1ccc(NC2CC2)c(-c2cn(C)c(=O)c3[nH]ccc23)c1 [Example 267, 4-[2-(cyclopropylamino)-5-(ethylsulfonyl)phenyl]-6-methyl-1,6-dihydro-7H-pyrrolo[2,3-c]pyridin-7-one]
EC50 ([1]; Homo sapiens, MX1, 72 h): 43.6 nM
Ki [2]: 4.4 nM
inhibition in vivo at 3 mg/kg [3]: 74%
half-life at 0.5 μM [4]: > 120 min
half-life at 0.5 μM [5]: 18 min
half-life at 0.5 μM [6]: 95 min
Ki [7]: 4.2 nM

Cn1cc(-c2cc(NS(C)(=O)=O)ccc2Oc2cccnc2)c2cc[nH]c2c1=O [Example 11, N-[3-(6-methyl-7-oxo-6,7-dihydro-1H-pyrrolo[2,3-c]pyridin-4-yl)-4-(pyridin-3-yloxy)phenyl]methanesulfonamide]
EC50 ([1]; Homo sapiens, MX1, 72 h): 34.2 nM
Ki [2]: 1.8 nM
inhibition in vivo at 3 mg/kg [3]: 34%
half-life at 0.5 μM [4]: 27 min
half-life at 0.5 μM [5]: 19 min
half-life at 0.5 μM [6]: 48 min
Ki [7]: 2.4 nM

CCS(=O)(=O)c1ccc(OC2CCC(C)(O)CC2)c(-c2cn(C)c(=O)c3[nH]ccc23)c1 (stereo not drawn) [Example 212, 4-{5-(ethylsulfonyl)-2-[(trans-4-hydroxy-4-methylcyclohexyl)oxy]phenyl}-6-methyl-1,6-dihydro-7H-pyrrolo[2,3-c]pyridin-7-one]
EC50 [1]: 7.3 nM
Ki [2]: 1.8 nM
Inhibition of LPS induced IL-6 production in Mice, % inhibition at 3 mg/kg [3]: 47%
Stability in mouse liver microsomes (t1/2 in minutes) ([4]; mouse): 53 min
Stability in rat liver microsomes (t1/2 in minutes) ([5]; rat, microsomes, pH 7.4): 67 min
Stability in human liver microsomes (t1/2 in minutes) [6]: 69 min
Ki [7]: 1.3 nM

Cn1cc(-c2cc(NS(C)(=O)=O)ccc2Oc2c(F)cc(F)cc2F)c2cc[nH]c2c1=O [Example 49, N-[3-(6-methyl-7-oxo-6,7-dihydro-1H-pyrrolo[2,3-c]pyridin-4-yl)-4-(2,4,6-trifluorophenoxy)phenyl]methanesulfonamide]
EC50 ([1]; Homo sapiens, MX1, 72 h): 19.6 nM
Ki [2]: 1.7 nM
inhibition in vivo at 3 mg/kg [3]: 57%
half-life at 0.5 μM [4]: 46 min
half-life at 0.5 μM [5]: 51 min
half-life at 0.5 μM [6]: 71 min
Ki [7]: 1.5 nM

Cn1cc(-c2cc(S(C)(=O)=O)ccc2Oc2cccc(N)c2)c2cc[nH]c2c1=O [Example 166, 4-[2-(3-aminophenoxy)-5-(methylsulfonyl)phenyl]-6-methyl-1,6-dihydro-7H-pyrrolo[2,3-c]pyridin-7-one]
EC50 ([1]; Homo sapiens, MX1, 72 h): 48.2 nM
Ki [2]: 10.9 nM
inhibition in vivo at 3 mg/kg [3]: 44%
half-life at 0.5 μM [4]: 22 min
half-life at 0.5 μM [5]: 23 min
half-life at 0.5 μM [6]: 85 min
Ki [7]: 3.6 nM

CCS(=O)(=O)Nc1ccc(Oc2ccc(C(N)=O)cc2)c(-c2cn(C)c(=O)c3[nH]ccc23)c1 [Example 84, 4-{4-[(ethylsulfonyl)amino]-2-(6-methyl-7-oxo-6,7-dihydro-1H-pyrrolo[2,3-c]pyridin-4-yl)phenoxy}benzamide]
EC50 ([1]; Homo sapiens, MX1, 72 h): 231 nM
Ki [2]: 1.67 nM
inhibition in vivo at 3 mg/kg [3]: 69%
half-life at 0.5 μM [4]: > 120 min
half-life at 0.5 μM [5]: 92 min
half-life at 0.5 μM [6]: 112 min
Ki [7]: 0.65 nM

CCS(=O)(=O)c1ccc(O[C@H]2CC[C@H](OC)CC2)c(-c2cn(C)c(=O)c3[nH]ccc23)c1 [Example 260, 4-{5-(ethylsulfonyl)-2-[(trans-4-methoxycyclohexyl)oxy]phenyl}-6-methyl-1,6-dihydro-7H-pyrrolo[2,3-c]pyridin-7-one]
EC50 ([1]; Homo sapiens, MX1, 72 h): 6.3 nM
Ki [2]: 1 nM
inhibition in vivo at 3 mg/kg [3]: 66%
half-life at 0.5 μM [4]: 29 min
half-life at 0.5 μM [5]: 58 min
half-life at 0.5 μM [6]: 34 min
Ki [7]: 1.2 nM

Cn1cc(-c2cc(NS(C)(=O)=O)ccc2Oc2ccccc2C(F)(F)F)c2cc[nH]c2c1=O [Example 32, N-{3-(6-methyl-7-oxo-6,7-dihydro-1H-pyrrolo[2,3-c]pyridin-4-yl)-4-[2-(trifluoromethyl)phenoxy]phenyl}methanesulfonamide]
EC50 ([1]; Homo sapiens, MX1, 72 h): 83.3 nM
Ki [2]: 16 nM
inhibition in vivo at 3 mg/kg [3]: 69%
half-life at 0.5 μM [4]: 32 min
half-life at 0.5 μM [5]: 82 min
half-life at 0.5 μM [6]: 24 min
Ki [7]: 7.5 nM

Cn1cc(-c2cc(S(C)(=O)=O)ccc2Oc2ccc(F)cc2F)c2cc(CO)[nH]c2c1=O [Example 276, 4-[2-(2,4-difluorophenoxy)-5-(methylsulfonyl)phenyl]-2-(hydroxymethyl)-6-methyl-1,6-dihydro-7H-pyrrolo[2,3-c]pyridin-7-one]
EC50 ([1]; Homo sapiens, MX1, 72 h): 149 nM
Ki [2]: 11.4 nM
inhibition in vivo at 3 mg/kg [3]: 25%
half-life at 0.5 μM [4]: 71 min
half-life at 0.5 μM [5]: 82 min
half-life at 0.5 μM [6]: > 120 min
Ki [7]: 17.1 nM

CCS(=O)(=O)c1ccc(OC2CCC3(CC2)OCCO3)c(-c2cn(C)c(=O)c3[nH]ccc23)c1 [Example 197, 4-[2-(1,4-dioxaspiro[4.5]dec-8-yloxy)-5-(ethylsulfonyl)phenyl]-6-methyl-1,6-dihydro-7H-pyrrolo[2,3-c]pyridin-7-one]
EC50 ([1]; Homo sapiens, MX1, 72 h): 11.7 nM
Ki [2]: 1.5 nM
inhibition in vivo at 3 mg/kg [3]: 59%
half-life at 0.5 μM [4]: 10 min
half-life at 0.5 μM [5]: 15 min
half-life at 0.5 μM [6]: 16 min
Ki [7]: 0.79 nM

CCS(=O)(=O)Nc1ccc(OCC(C)(C)C)c(-c2cn(C)c(=O)c3[nH]ccc23)c1 [Example 144, N-[4-(2,2-dimethylpropoxy)-3-(6-methyl-7-oxo-6,7-dihydro-1H-pyrrolo[2,3-c]pyridin-4-yl)phenyl]ethanesulfonamide]
EC50 ([1]; Homo sapiens, MX1, 72 h): 76.9 nM
Ki [2]: 13.6 nM
inhibition in vivo at 3 mg/kg [3]: 48%
half-life at 0.5 μM [4]: 17 min
half-life at 0.5 μM [5]: 19 min
half-life at 0.5 μM [6]: 18 min
Ki [7]: 17.8 nM

Cn1cc(-c2cc(S(=O)(=O)N3CC(F)(F)C3)ccc2OCC2CC2)c2cc[nH]c2c1=O [Example 308, 4-{2-(cyclopropylmethoxy)-5-[(3,3-difluoroazetidin-1-yl)sulfonyl]phenyl}-6-methyl-1,6-dihydro-7H-pyrrolo[2,3-c]pyridin-7-one]
EC50 ([1]; Homo sapiens, MX1, 72 h): 29.3 nM
Ki [2]: 49.9 nM
inhibition in vivo at 3 mg/kg [3]: 48%
half-life at 0.5 μM [4]: 16 min
half-life at 0.5 μM [5]: 10 min
half-life at 0.5 μM [6]: 20 min
Ki [7]: 6.5 nM

Cn1cc(-c2cc(S(N)(=O)=O)cnc2OCC2CC2)c2cc[nH]c2c1=O [Example 207, 6-(cyclopropylmethoxy)-5-(6-methyl-7-oxo-6,7-dihydro-1H-pyrrolo[2,3-c]pyridin-4-yl)pyridine-3-sulfonamide]
EC50 ([1]; Homo sapiens, MX1, 72 h): 25.1 nM
Ki [2]: 3.1 nM
inhibition in vivo at 3 mg/kg [3]: 62%
half-life at 0.5 μM [4]: 100 min
half-life at 0.5 μM [5]: 78 min
half-life at 0.5 μM [6]: 102 min
Ki [7]: 1.8 nM

Cn1cc(-c2cc(NS(C)(=O)=O)ccc2Oc2ccc(F)cc2Cl)c2cc[nH]c2c1=O [Example 34, N-[4-(2-chloro-4-fluorophenoxy)-3-(6-methyl-7-oxo-6,7-dihydro-1H-pyrrolo[2,3-c]pyridin-4-yl)phenyl]methanesulfonamide]
EC50 ([1]; Homo sapiens, MX1, 72 h): 26.8 nM
Ki [2]: 3.5 nM
inhibition in vivo at 3 mg/kg [3]: 78%
half-life at 0.5 μM [4]: 35 min
half-life at 0.5 μM [5]: 42 min
half-life at 0.5 μM [6]: 37 min
Ki [7]: 2.1 nM

CCS(=O)(=O)c1ccc(OCC2CC2(F)F)c(-c2cn(C)c(=O)c3[nH]ccc23)c1 (stereo not shown) [Example 240, 4-{2-[(2,2-difluorocyclopropyl)methoxy]-5-(ethylsulfonyl)phenyl}-6-methyl-1,6-dihydro-7H-pyrrolo[2,3-c]pyridin-7-one]
EC50 ([1]; Homo sapiens, MX1, 72 h): 11.5 nM
Ki [2]: 2 nM
inhibition in vivo at 3 mg/kg [3]: 62%
half-life at 0.5 μM [4]: 47 min
half-life at 0.5 μM [5]: > 120 min
half-life at 0.5 μM [6]: > 120 min
Ki [7]: 2.8 nM

CN(C)S(=O)(=O)c1cnc(NCC2CC2)c(-c2cn(C)c(=O)c3[nH]ccc23)c1 [Example 245, 6-[(cyclopropylmethyl)amino]-N,N-dimethyl-5-(6-methyl-7-oxo-6,7-dihydro-1H-pyrrolo[2,3-c]pyridin-4-yl)pyridine-3-sulfonamide]
EC50 ([1]; Homo sapiens, MX1, 72 h): 26.9 nM
Ki [2]: 2.5 nM
inhibition in vivo at 3 mg/kg [3]: 71%
half-life at 0.5 μM [4]: 12 min
half-life at 0.5 μM [5]: 24 min
half-life at 0.5 μM [6]: 32 min
Ki [7]: 3.7 nM

Cn1cc(-c2cc(S(C)(=O)=O)ccc2OC2CCOC2)c2cc[nH]c2c1=O (stereo not shown) [Example 205, 6-methyl-4-[5-(methylsulfonyl)-2-(tetrahydrofuran-3-yloxy)phenyl]-1,6-dihydro-7H-pyrrolo[2,3-c]pyridin-7-one]
EC50 ([1]; Homo sapiens, MX1, 72 h): 39.1 nM
Ki [2]: 6.2 nM
inhibition in vivo at 3 mg/kg [3]: 48%
half-life at 0.5 μM [4]: 118 min
half-life at 0.5 μM [5]: 81 min
half-life at 0.5 μM [6]: > 120 min
Ki [7]: 10.2 nM
